These results are taken from US10722529B2, “Modulation of NAD+ metabolic pathways for treatment of disease” (Temple University—Of The Commonwealth System of Higher …, priority 2015, dated 2020).

Each structure is given as a SMILES string. Entries after “also recorded” stand apart in the source; their conditions may differ.

One assay relates to IDO. Particulars: cited from earlier work.
The test system of the next assay is NAD+. The experiment in a line: NAD+ concentration in PBMC of rhesus macaques treated with increasing NR over 5 weeks. In kind it is in vivo, rhesus macaque. As to conditions: SIV infected rhesus macaques, increasing concentrations of NR over a 5 week period. How it is done:
Peripheral blood mononuclear cells (PBMC) from five seronegative and four seropositive rhesus macaques were lysed and assayed for NAD+ concentration after treatment with increasing concentrations of nicotinamide riboside (NR) over a 5 week period. […] Paired T test and one way ANOVA was performed *P≤0.05; **P≤0.01 n=9.
Experiments were then conducted to examine the effect of nicotinamide riboside treatment on NAD+ levels in SIV infected animals. Peripheral blood mononuclear cells (PBMC) from five seronegative and four seropositive rhesus macaques were lysed and assayed for NAD+ concentration after treatment with increasing concentrations of nicotinamide riboside (NR) over a 5 week period.

The subject of assay [1] is macrophage colony-stimulating factor (M-CSF). The experiment in a line: M-CSF in NR treated macaques. Type of assay: in vivo, rhesus macaque. From the text: FIG. 11 depicts experimental results showing that macrophage colony-stimulating factor (M-CSF) is reduced in NR treated macaques.
The subject of another assay is CD4/CD8 ratio. Briefly: CD4/CD8 ratio in NR dose escalation study in SIV infected macaques. Type of assay: in vivo, rhesus macaque. As to conditions: SIV infected animals; highest dose (400 mg/kg). How it is done: (§1) As described herein, an increase in the kynurenine to tryptophan ratios in the SIV macaque model was identified, with a positive correlation with viral load and soluble CD163 in plasma. […] In an effort to modulate the kynurenine pathway, and decrease tryptophan metabolism, a dose escalation study was performed with the NAD salvage pathway precursor, nicotinamide riboside (NR), in SIV infected macaques. […] This monocyte subset has been implicated in the pathogenesis of HIV infection, HAND, as well as other HIV associated comorbidities. […] The regulation of the kynurenine pathway appears to be complex, yet an attractive target for HIV therapeutics. Understanding the mechanism by which HIV modulates the kynurenine pathway could provide new therapeutic targets for the treatment of HIV and HAND.

The test system of a further assay is human monocytes. The experiment in a line: CD16 expression in human monocytes isolated from donor PBMCs in the presence of M-CSF. Type of assay: cell-based. Particulars: M-CSF treatment, in vitro. From the text: FIG. 12 depicts the flow cytometry gating strategy used to separate two CD16 positive monocyte subsets.
FIG. 14 depicts the mean fluorescent intensity for CD16 expression in human monocytes isolated from donor PBMCs in the presence of M-CSF treatment.

Assay [2] relates to kynurenine to tryptophan ratio. The experiment in a line: Plasma kynurenine to tryptophan ratio (KTR) in NR-treated rhesus macaques. In kind it is in vivo, rhesus macaque. How it is done: FIG. 8A depicts the KTR in SIV infected animals treated with different concentrations of NR. FIG. 8B depicts the KTR in uninfected animals treated with different concentrations of NR.
as §1
Experiments were then conducted to examine if kynurenine to tryptophan ratios of SIV infected macaques correlate with sCD163 plasma level, ATP plasma level, and viral load. ELISA kits were used according to the manufacturer's directions to determine plasma concentrations of sCD163, kynurenine and tryptophan. Plasma ATP levels were analyzed using ATPLite assay. It was determined that kynurenine to tryptophan ratios increased in relations to higher viral loads (r=0.4774; p=0.0028) (FIG. 5A). Further, a positive correlation between kynurenine to tryptophan ratio and sCD163 plasma concentration was observed (r=0.473; p=0.0027) (FIG. 5B).

The next assay concerns SIV. The experiment in a line: Viral load in SIV infected macaques treated with NR (latency reversal). In kind it is in vivo, rhesus macaque. From the text:
Four SIV infected macaques were followed over time during chronic infection, two treated with combination anti-retroviral therapy (cART), and two non-treated.

Another assay concerns CD14+/CD16+ monocytes. Briefly: Flow cytometry of CD14/CD16 on PBMC monocytes of NR-treated rhesus macaques. Type of assay: in vivo, rhesus macaque. As to conditions: for CD16 expression on CD14+ monocytes (FACS dot plots): five seronegative and four seropositive macaques, before vs after NR. How it is done:
PBMC from five seronegative and four seropositive rhesus macaques were analyzed after treatment with increasing concentrations of nicotinamide riboside (NR) over a 5-week period.
PBMC from five seronegative and four seropositive rhesus macaques were stained with antibodies to CD14 and CD16 and analyzed by flow cytometry after treatment with increasing concentrations of NR over a 5-week period. The mean fluorescence intensity (MFI) and percent frequency (% Freq) of CD16 was determined for each animal. […] One-way ANOVA was performed *P≤0.05; **P≤0.01; ***P≤0.001; n=9.
Experiments were then conducted to examine whether nicotinamide riboside treatment effects CD16 expression on CD14+ monocytes. PBMC from five seronegative and four seropositive rhesus macaques were analyzed after treatment with increasing concentrations of nicotinamide riboside (NR) over a 5-week period.
Experiments were then conducted to examine the effects of NR treatment on CD14 and CD16 expression. PBMC from five seronegative and four seropositive rhesus macaques were stained with antibodies to CD14 and CD16 and analyzed by flow cytometry after treatment with increasing concentrations of NR over a 5-week period. The mean fluorescence intensity (MFI) and percent frequency (% Freq) of CD16 was determined for each animal.
A general note: A flow cytometer gives signals particle by particle.

The next assay addresses CD38 (Homo sapiens, UniProt P28907). As to conditions: at micromolar concentrations; cited from earlier work.
The next assay relates to intracellular NAD+. As to conditions: at micromolar concentrations; cited from earlier work.
The next assay relates to HIV/AIDS. As to conditions: prior to the advent of cART; cited from earlier work.
The next assay deals with plasma tryptophan. Particulars: HIV infected subjects, supplementation; cited from earlier work.
The test system of assay [3] is adipose tissue macrophage infiltration. Particulars: mice; cited from earlier work.
In a further assay the test system is HIV. Particulars: in vitro and in patients; cited from earlier work.
Setting [4] is: listed as nicotinamide riboside.
Setting [5] is: uninfected and SIV infected macaques, before vs after NR over 5 weeks.

Chain of CD38 (P28907 whole entry, species assumed): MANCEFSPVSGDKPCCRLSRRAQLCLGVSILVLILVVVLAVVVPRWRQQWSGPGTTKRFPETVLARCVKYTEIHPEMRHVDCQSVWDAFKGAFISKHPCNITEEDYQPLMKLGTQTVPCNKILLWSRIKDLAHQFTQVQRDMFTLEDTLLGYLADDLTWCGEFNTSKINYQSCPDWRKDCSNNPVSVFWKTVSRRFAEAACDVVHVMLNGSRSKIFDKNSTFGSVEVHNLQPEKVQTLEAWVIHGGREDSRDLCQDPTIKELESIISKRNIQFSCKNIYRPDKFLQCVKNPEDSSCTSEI

On to `Cn1cc(C[C@H](N)C(=O)O)c2ccccc21` [1-methyl tryptophan], for which the “effect on tryptophan depletion or alterations in the kynurenine pathway” value in the assay on IDO (SIV/rhesus macaque model, IDO blockade) was “incapable of affecting”. Besides, the “disturbance in K/T over-time” value in the assay on IDO (infected animals vs controls) is recorded as “increased the disturbance in K/T over-time in infected animals but not in controls”.

Regarding `NC(=O)c1ccc[n+]([C@@H]2O[C@H](CO)[C@@H](O)[C@H]2O)c1` [NR, nicotinamide riboside], the “NAD+ concentration in PBMC” value with NAD+ is on record as “significantly increased”; in the assay with NAD+ (setting [4]), “increases NAD+ levels”. Besides, the M-CSF level entry in assay [1] is recorded as “reduces M-CSF; also recorded: reduced”. Also, the CD4/CD8 ratio result in the assay on CD4/CD8 ratio is listed as “decrease CD4/CD8 ratio”. Besides, the “CD16 monocyte subset expression” value with human monocytes is “inhibits CD16 monocyte expression induced by M-CSF; also recorded: reduces CD16 monocyte subset expression”. In assay [2] (SIV infected animals, 100 mg/kg dose), the “kynurenine to tryptophan ratio” value is given as “appeared to increase”. The “kynurenine to tryptophan ratio (KTR)” value is recorded as “decreased; also recorded: decreases KTR” in assay [2] (SIV infected animals, different concentrations of NR) and “no significant impact” in assay [2] (uninfected (seronegative) animals, relative to pretreatment values). For the same compound, in the assay with SIV (SIV infected rhesus macaques), the “function as latency reversing agent for SIV infection” value is “potential for NR to function as a latency reversing agent; also recorded: may function as a latency reversing agent”. In the assay on SIV (four SIV infected macaques, chronic infection, two on cART, two non-treated, all treated with NR), the viral load result is “evidence for viral load increase in all animals”. In addition, the “viral load over time” value in the assay on SIV (the animal on cART with the lowest viral load) is “increase in viral load and then decrease over time”. In addition, the “CD16 expression on CD14+ monocytes (FACS dot plots)” value is on record as “decreased in all animals examined” in the assay on CD14+/CD16+ monocytes and “significantly decreases” in the assay with CD14+/CD16+ monocytes (setting [4]). The “mean fluorescence intensity (MFI) of CD16 on CD14+/CD16+ monocytes” value in the assay with CD14+/CD16+ monocytes (setting [5]) is “significantly reduced; also recorded: significantly higher than after treatment; also recorded: significantly decreases”. For the same compound, in the assay on CD14+/CD16+ monocytes (setting [5]), the “percent frequency of CD14+/CD16+ monocytes (% Freq of CD16)” value is recorded as “significantly reduced; also recorded: significantly decreases”.

As for `O=c1cc(-c2ccc(O)cc2)oc2cc(O)cc(O)c12` [apigenin], the “inhibition of CD38 enzyme activity” value on CD38 is reported as “inhibit CD38 enzyme activity”. Also, the “intracellular NAD+” value in the assay on intracellular NAD+ was “increase intracellular NAD+”.

For `O=C(O)c1cccnc1` [niacin], the “delay of progression of HIV/AIDS” value in the assay on HIV/AIDS is “some benefit in delaying the progression of HIV/AIDS”.

As to `NC(=O)c1cccnc1` [nicotinamide], the plasma tryptophan levels result in the assay on plasma tryptophan is reported as “increases plasma tryptophan levels”.

As for `O=c1c(O)c(-c2ccc(O)c(O)c2)oc2cc(O)cc(O)c12` [quercetin], the “inhibition of CD38 enzyme activity” value on CD38 is “inhibit CD38 enzyme activity”. In [3], the SIRT-1 activity entry is “increased SIRT-1 activity”; the “inflammatory cytokine levels in tissue and sera (TNFα, MCP-1, IL-6)” value is listed as “reduced inflammatory cytokine levels”; the “obesity associated adipose tissue macrophage infiltration” value is “reduce obesity associated adipose tissue macrophage infiltration”. Moreover, the “intracellular NAD+” value in the assay on intracellular NAD+ is “increase intracellular NAD+”.

`O=C(CCCCCCC(=O)Nc1ccccc1)NO` [vorinostat]: the “latency reversal on repeated dosages” value in the assay with HIV is “diminishing returns over time”.
